Broadly, the GI50 is the concentration giving 50% growth inhibition.

This note sets out measurements from ChEMBL document CHEMBL1201862, “PubChem BioAssay data set” (2004).

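Protocol summary: plate cells (96-well), add compound at 5 concentrations, incubate 48 h, interpolate endpoints linearly. The concentration for 50% growth inhibition is given as GI50.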 Active and inactive are the calls of the source. No stated cut-off is given here; in the data, active = GI50 up to about 1.1 µM and inactive = higher.

Test systems include SF-539; SNB-75; HOP-92; TK-10; NCI/ADR-RES; OVCAR-8; SK-MEL-5; MDA-N; ACHN; HCC 2998; Hs-578T; A498; UACC-62; CCRF-CEM; NCI-H522; SR; A549; NCI-H23; SNB-19.
What all share (test): DTP human tumour cell line panel, 48 h

As to `CC(=O)Nc1nc(NC(C)=O)c2nc(CO)[nH]c2n1`, the GI50 in the assay with SF-539, in the assay on SNB-75, with HOP-92, in the assay with TK-10, in the assay with NCI/ADR-RES and in the assay on OVCAR-8 was > 100 µM (inactive) throughout. Also, the GI50 in the assay with SK-MEL-5, in the assay on MDA-N, with ACHN, in the assay on HCC 2998, with Hs-578T and in the assay on A498 was > 100 µM (inactive) each time. Further, the GI50 with UACC-62, in the assay on CCRF-CEM, in the assay on NCI-H522, in the assay on SR, in the assay with A549 and in the assay with NCI-H23 was > 100 µM (inactive) in each case. In addition, in the assay with SNB-19, the GI50 was > 100 µM (inactive).
`N#CC(C#N)=Cn1c(=S)[nH]c2ccc([N+](=O)[O-])cc21`: the GI50 in the assay with SF-539 was > 100 µM (inactive); with SNB-75, 15.2 µM (inactive); in the assay with HOP-92 it was > 100 µM (inactive); in the assay on TK-10 it was > 100 µM (inactive); in the assay with NCI/ADR-RES it was > 100 µM (inactive); in the assay with OVCAR-8, > 100 µM (inactive). Moreover, the GI50 in the assay on SK-MEL-5 was > 100 µM (inactive); in the assay with MDA-N, > 100 µM (inactive); in the assay on ACHN, > 100 µM (inactive); in the assay with HCC 2998 it was > 100 µM (inactive); in the assay on Hs-578T, 60.8 µM (inactive); in the assay with A498, > 100 µM (inactive). Also, the GI50 in the assay with UACC-62, with CCRF-CEM, in the assay with NCI-H522, in the assay on SR, with A549 and in the assay with NCI-H23 was > 100 µM (inactive) in each case. Moreover, the GI50 in the assay on SNB-19 is > 100 µM (inactive).
Consider `CCOc1ccc(Nc2nc(N)nc(N)c2N=O)cc1`, for which the GI50 in the assay on SF-539 is 80.5 µM (inactive); in the assay on SNB-75, 28.1 µM (inactive); in the assay with HOP-92, 17.9 µM (inactive); with TK-10, 34.3 µM (inactive); in the assay with NCI/ADR-RES, 47.1 µM (inactive); in the assay on OVCAR-8 it was 51.1 µM (inactive). Moreover, the GI50 was 49.5 µM (inactive) with SK-MEL-5; 62.1 µM (inactive) with MDA-N; 42.1 µM (inactive) in the assay on ACHN; 55.2 µM (inactive) with HCC 2998; 50.9 µM (inactive) in the assay on Hs-578T; > 100 µM (inactive) with A498. In addition, the GI50 in the assay on UACC-62 is 44.1 µM (inactive); with CCRF-CEM, > 100 µM (inactive); in the assay on NCI-H522, 55.5 µM (inactive); with SR it was 71.1 µM (inactive); in the assay on A549, > 100 µM (inactive); with NCI-H23 it was 59.7 µM (inactive). In addition, the GI50 with SNB-19 is 61 µM (inactive).
Turning to `CO/N=[N+](\[O-])NC(C)C`, the GI50 in the assay with SF-539, in the assay on SNB-75, in the assay on HOP-92, in the assay on TK-10, with NCI/ADR-RES and in the assay on OVCAR-8 was > 100 µM (inactive) in each case. The GI50 in the assay on SK-MEL-5, in the assay with MDA-N, in the assay on ACHN, with HCC 2998, in the assay on Hs-578T and in the assay on A498 was > 100 µM (inactive) throughout. The GI50 in the assay on UACC-62, in the assay on CCRF-CEM, with NCI-H522, in the assay on SR, with A549 and in the assay with NCI-H23 was > 100 µM (inactive) in each case. The GI50 in the assay with SNB-19 is > 100 µM (inactive).
Consider `CCOC(=O)c1c(SC(=O)C(C)(C)Oc2ccc(Cl)cc2)n(-c2ccccc2)c(=S)n(-c2ccccc2)c1=O`, for which the GI50 in the assay with SF-539 was 22.9 µM (inactive); in the assay on SNB-75, 51.4 µM (inactive); in the assay with HOP-92, 35.6 µM (inactive); in the assay with TK-10 it was 89.5 µM (inactive); with NCI/ADR-RES it was 58.6 µM (inactive); in the assay with OVCAR-8, 19.6 µM (inactive). For the same compound, the GI50 was 48.8 µM (inactive) with MDA-N; 23.3 µM (inactive) in the assay on ACHN; > 100 µM (inactive) in the assay with HCC 2998; 26.9 µM (inactive) in the assay on Hs-578T; 52.7 µM (inactive) in the assay with A498; 67.8 µM (inactive) with UACC-62. For the same compound, the GI50 in the assay on CCRF-CEM is 30.1 µM (inactive); with NCI-H522, 39.8 µM (inactive); with SR it was 23.9 µM (inactive); in the assay with A549, 26.9 µM (inactive); with NCI-H23, 61.7 µM (inactive); in the assay on SNB-19 it was 31.6 µM (inactive).
Take `CN1CCN(CCCCN2c3ccccc3Sc3ccc(C(=O)c4ccccc4)cc32)CC1`: the GI50 is 1.83 µM (inactive) with SF-539; 1.26 µM (inactive) with SNB-75; 1.82 µM (inactive) in the assay on HOP-92; 1.67 µM (inactive) with TK-10; 1.86 µM (inactive) with NCI/ADR-RES; 1.5 µM (inactive) with OVCAR-8. Besides, the GI50 in the assay on SK-MEL-5 was 1.54 µM (inactive); in the assay with MDA-N it was 1.55 µM (inactive); in the assay with ACHN, 1.67 µM (inactive); in the assay on HCC 2998 it was 1.56 µM (inactive); with Hs-578T, 1.58 µM (inactive); in the assay with A498 it was 1.56 µM (inactive). The GI50 with UACC-62 was 1.26 µM (inactive); in the assay on CCRF-CEM, 1.64 µM (inactive); in the assay on NCI-H522 it was 1.78 µM (inactive); with SR, 1.41 µM (inactive); in the assay on A549 it was 1.95 µM (inactive); with NCI-H23, 1.85 µM (inactive). For the same compound, the GI50 with SNB-19 was 1.91 µM (inactive).
Take `COc1ccc(-c2cc(C3CC3)nc(SCC(=O)O)c2C#N)cc1`: the GI50 is > 100 µM (inactive) with SF-539; > 100 µM (inactive) with SNB-75; 82.6 µM (inactive) with HOP-92; > 100 µM (inactive) with TK-10; > 100 µM (inactive) in the assay with NCI/ADR-RES; > 100 µM (inactive) in the assay with OVCAR-8. The GI50 in the assay on SK-MEL-5 is > 100 µM (inactive); in the assay on MDA-N, > 100 µM (inactive); with ACHN it was > 100 µM (inactive); with HCC 2998 it was > 100 µM (inactive); in the assay with Hs-578T it was 84.3 µM (inactive); in the assay on A498 it was > 100 µM (inactive). Besides, the GI50 was > 100 µM (inactive) in the assay on UACC-62; 57.8 µM (inactive) in the assay with CCRF-CEM; 25.1 µM (inactive) with NCI-H522; 55.8 µM (inactive) in the assay with SR; 44 µM (inactive) in the assay on A549; > 100 µM (inactive) in the assay on NCI-H23. Also, the GI50 in the assay on SNB-19 was > 100 µM (inactive).
Take `COC1=C(Cl)C(=O)c2c(O)ccc(O)c2C1=O`: the GI50 in the assay on SF-539 was 0.578 µM (active); in the assay with SNB-75 it was 4.88 µM (inactive); with HOP-92 it was 1.78 µM (inactive); in the assay with TK-10, 1.05 µM (active); in the assay on NCI/ADR-RES it was 0.843 µM (active); with OVCAR-8, 2 µM (inactive). In addition, the GI50 with SK-MEL-5 was 1.4 µM (inactive); in the assay on MDA-N, 2.2 µM (inactive); in the assay on ACHN it was 1.02 µM (active); with HCC 2998 it was 13 µM (inactive); with Hs-578T it was 1.11 µM (active); with A498, 0.794 µM (active). The GI50 in the assay on UACC-62 is 1.07 µM (active); with CCRF-CEM, 0.18 µM (active); in the assay on NCI-H522, 0.119 µM (active); with SR, 0.227 µM (active); in the assay with A549, 4.01 µM (inactive); in the assay with NCI-H23 it was 1.91 µM (inactive). The GI50 with SNB-19 was 5.98 µM (inactive).
In the case of `CC(=O)O[C@H]1C[C@@H](O[C@H]2[C@@H](O)C[C@H](O[C@H]3[C@@H](O)C[C@H](O[C@H]4CC[C@@]5(C)[C@H](CC[C@@H]6[C@@H]5C[C@@H](O)[C@]5(C)[C@@H](C7=CC(=O)OC7)CC[C@]65O)C4)O[C@@H]3C)O[C@@H]2C)O[C@H](C)[C@H]1O.CC(=O)O[C@H]1[C@@H](O)C[C@@H](O[C@H]2[C@@H](O)C[C@H](O[C@H]3[C@@H](O)C[C@H](O[C@H]4CC[C@@]5(C)[C@H](CC[C@@H]6[C@@H]5C[C@@H](O)[C@]5(C)[C@@H](C7=CC(=O)OC7)CC[C@]65O)C4)O[C@@H]3C)O[C@@H]2C)O[C@@H]1C`, the GI50 with SF-539 was 0.0315 µM (active); with SNB-75 it was 0.0483 µM (active); in the assay on HOP-92, 0.0561 µM (active); with TK-10, 0.0299 µM (active); with NCI/ADR-RES it was 0.0238 µM (active); with OVCAR-8 it was 0.0378 µM (active). In addition, the GI50 was 0.0296 µM (active) in the assay on SK-MEL-5; 0.0402 µM (active) with MDA-N; 0.0136 µM (active) in the assay with ACHN; 0.104 µM (active) with HCC 2998; 0.0251 µM (active) with Hs-578T; 0.0386 µM (active) with A498. Also, the GI50 with UACC-62 is 0.0387 µM (active); with CCRF-CEM it was 0.617 µM (active); in the assay on NCI-H522, < 0.01 µM (active); in the assay with SR it was 0.0443 µM (active); with A549, 0.0119 µM (active); with NCI-H23, 0.0114 µM (active). Moreover, the GI50 with SNB-19 was 0.0637 µM (active).
For `O=C(O)c1cc(=O)c2c(OCC(O)COc3cccc4oc(C(=O)O)cc(=O)c34)cccc2o1`, the GI50 is 98.2 µM (inactive) in the assay with SF-539; > 61 µM (inactive) in the assay on SNB-75; > 63.8 µM (inactive) in the assay on HOP-92; > 100 µM (inactive) with TK-10; > 100 µM (inactive) in the assay on NCI/ADR-RES; 99.5 µM (inactive) in the assay on OVCAR-8. In addition, the GI50 in the assay with SK-MEL-5 is > 65.9 µM (inactive); in the assay on MDA-N it was > 71.8 µM (inactive); in the assay on ACHN, > 100 µM (inactive); in the assay on HCC 2998, > 100 µM (inactive); in the assay on Hs-578T, > 72.4 µM (inactive); in the assay with A498, > 59 µM (inactive). Further, the GI50 with UACC-62 was > 68.1 µM (inactive); in the assay with CCRF-CEM, > 71 µM (inactive); in the assay with NCI-H522 it was > 56.8 µM (inactive); in the assay with SR, > 81.8 µM (inactive); in the assay on A549, > 84.3 µM (inactive); in the assay with NCI-H23, > 84.3 µM (inactive). The GI50 in the assay on SNB-19 is > 100 µM (inactive).
